{"source": "patent US4742049A", "about": "“Semisynthetic erythromycin antibiotics” (Abbott Laboratories, priority 1986, dated 1988)", "assay_type_in_all_cases": "cell-based", "key": {"Haemophilus influenzae": {"test_system": "Haemophilus influenzae", "assay": "MIC against strains of Haemophilus influenzae", "experimental": "(§1) Erythromycin A was used for this purpose.\n(§2) After incubation, each disk is read.\nIn the manner of Example 23, the efficacy of compounds of this invention were tested against numerous strains of Haemophilus influenzae."}, "E. coli": {"test_system": "E. coli", "assay": "antimicrobial spectrum, agar dilution MIC", "conditions": "Escherichia coli, BHI agar, 20-24 hours"}, "Strep. pyogenes": {"test_system": "Strep. pyogenes", "assay": "antimicrobial spectrum, agar dilution MIC", "conditions": "Streptococcus pyogenes, BHI agar, 20-24 hours", "experimental": "(§3) Twelve petri dishes containing successive aqueous dilutions of the test compound mixed with 10 ml of sterilized Brain Heart Infusion agar (Difco 0418-01-5) are prepared. Each plate is inoculated with 1:100 (or 1:10 for slow-growing strains, primarily Micrococcus and Streptococcus) dilutions of up to 32 different microorganisms, using a Steers replicator block. The inoculated plates are incubated at 35°-37° C. for 20-24 hours. In addition, a control plate, using BHI agar containing no test compound, is prepared and incubated at the beginning and end of each test.\n(§4) An additional plate containing a compound having known susceptibility patterns for the organisms being tested and belonging to the same antibiotic class as the test compound is also prepared and incubated as a further control, as well as to provide test-to-test comparability.\n(§5) After incubation, each disk is read. The MIC is defined as the lowest concentration of drug yielding no growth, a slight haze, or sparsely isolated colonies on the inoculum spot as compared to the growth control."}, "Staph. epidermidis": {"test_system": "Staph. epidermidis", "assay": "antimicrobial spectrum, agar dilution MIC", "conditions": "Staphylococcus epidermidis", "experimental": "as §3, §4, §5"}, "Strep. faecium": {"test_system": "Strep. faecium", "assay": "antimicrobial spectrum, agar dilution MIC", "conditions": "Enterococcus faecium, ATCC8043", "experimental": "as §3, §4, §5"}, "Staph. aureus": {"test_system": "Staph. aureus", "assay": "antimicrobial spectrum, agar dilution MIC", "conditions": "Staphylococcus aureus, BHI agar, 20-24 hours", "experimental": "as §3, §4, §5"}, "Klebsiella pneumoniae": {"test_system": "Klebsiella pneumoniae", "assay": "antimicrobial spectrum, agar dilution MIC", "conditions": "strain 8045, BHI agar, 20-24 hours"}, "Pseudomonas cepacia": {"test_system": "Pseudomonas cepacia", "assay": "antimicrobial spectrum, agar dilution MIC", "conditions": "Burkholderia cepacia, strain 2961; BHI agar, 20-24 hours; read-out: MIC", "experimental": "as §1, §2"}, "Lactobacillus Casei": {"test_system": "Lactobacillus Casei", "assay": "antimicrobial spectrum, agar dilution MIC", "conditions": "Lacticaseibacillus casei, ATCC7469, strain ATCC 7469; BHI agar, 20-24 hours"}, "Micrococcus luteus": {"test_system": "Micrococcus luteus", "assay": "antimicrobial spectrum, agar dilution MIC", "conditions": "strain 9341, BHI agar, 20-24 hours"}, "Pseudomonas aeruginosa": {"test_system": "Pseudomonas aeruginosa", "assay": "antimicrobial spectrum, agar dilution MIC", "conditions": "Pseudomonas aeruginosa, BHI agar, 20-24 hours", "experimental": "as §3, §4, §5"}, "Providencia stuartii": {"test_system": "Providencia stuartii", "assay": "antimicrobial spectrum, agar dilution MIC", "conditions": "strain CMX 640, BHI agar, 20-24 hours", "experimental": "as §3, §4, §5"}, "Strep. agalactiae": {"test_system": "Strep. agalactiae", "assay": "antimicrobial spectrum, agar dilution MIC", "conditions": "Streptococcus agalactiae, strain CMX 508; BHI agar, 20-24 hours", "experimental": "as §3, §4, §5"}, "Strep. bovis": {"test_system": "Strep. bovis", "assay": "antimicrobial spectrum, agar dilution MIC", "conditions": "Streptococcus equinus, strain A5169; BHI agar, 20-24 hours", "experimental": "as §3, §4, §5"}, "Ent. aerogenes": {"test_system": "Ent. aerogenes", "assay": "antimicrobial spectrum, agar dilution MIC", "conditions": "Klebsiella aerogenes, ATCC13048, strain ATCC 13048; BHI agar, 20-24 hours; read-out: MIC"}, "Acinetobacter SP": {"test_system": "Acinetobacter SP", "assay": "antimicrobial spectrum, agar dilution MIC", "conditions": "strain CMX 669, BHI agar, 20-24 hours"}}, "note": "Like-named read-outs stand apart in the source and are kept apart here."}
{"compound": "11-deoxy-6-O-methyl erythromycin A 11,12-(N-3-hydroxyethyl)cyclic carbamate [Example 16]", "values": [{"measurement": "MIC", "setting": "Haemophilus influenzae; strain 504", "result": 1, "unit": "µg/mL"}, {"measurement": "MIC", "setting": "Haemophilus influenzae; strain 519A", "result": ".5 µg/mL"}, {"measurement": "MIC", "setting": "Haemophilus influenzae; strain 566A", "result": 1, "unit": "µg/mL"}, {"measurement": "MIC", "setting": "Haemophilus influenzae; strain 588A", "result": ".5 µg/mL"}, {"measurement": "MIC", "setting": "Haemophilus influenzae; strain 632A", "result": 1, "unit": "µg/mL"}, {"measurement": "MIC", "setting": "Haemophilus influenzae; strain 667A", "result": 1, "unit": "µg/mL"}, {"measurement": "MIC", "setting": "Haemophilus influenzae; strain 747C", "result": ".5 µg/mL"}, {"measurement": "MIC", "setting": "Haemophilus influenzae; strain 751", "result": 1, "unit": "µg/mL"}, {"measurement": "MIC", "setting": "Haemophilus influenzae; strain 1177", "result": 1, "unit": "µg/mL"}, {"measurement": "MIC", "setting": "Haemophilus influenzae; strain 1435", "result": ".25 µg/mL"}, {"measurement": "MIC", "setting": "Haemophilus influenzae; strain 5036B", "result": 1, "unit": "µg/mL"}, {"measurement": "MIC", "setting": "Haemophilus influenzae; strain ATCC 9006", "result": ".5 µg/mL"}, {"measurement": "MIC", "setting": "Haemophilus influenzae; strain ATCC 9795", "result": ".5 µg/mL"}, {"measurement": "MIC", "setting": "Haemophilus influenzae; strain ATCC 10211", "result": 1, "unit": "µg/mL"}, {"measurement": "MIC", "setting": "Haemophilus influenzae; strain ATCC 19418", "result": ".5 µg/mL"}, {"measurement": "MIC", "setting": "Haemophilus influenzae; strain DILL AMP R", "result": ".5 µg/mL"}, {"measurement": "MIC", "setting": "Haemophilus influenzae; strain SOL AMP R", "result": ".5 µg/mL"}, {"measurement": "MIC", "setting": "Haemophilus influenzae; strain SPK AMP R", "result": 1, "unit": "µg/mL"}]}
{"compound": "CC[C@H]1OC(=O)[C@H](C)[C@@H](O[C@H]2C[C@@](C)(OC)[C@@H](O)[C@H](C)O2)[C@H](C)[C@@H](O[C@@H]2O[C@H](C)C[C@H](N(C)C)[C@H]2O)[C@](C)(OC)C[C@@H](C)C(=O)[C@H](C)[C@H]2N(CCCOCCOC)C(=O)O[C@]12C", "note": "[Example 1, 11-deoxy-6-O-methylerythromycin A-11,12-(N-methoxyethoxypropyl)cyclic carbamate]", "values": [{"measurement": "MIC", "setting": "E. coli; strain JUHL", "result": 16, "unit": "µg/mL"}, {"measurement": "MIC", "setting": "Strep. pyogenes; strain 930, read-out: MIC", "result": 64, "unit": "µg/mL"}, {"measurement": "MIC", "setting": "Strep. pyogenes; strain EES61, read-out: MIC", "result": 0.06, "unit": "µg/mL"}, {"measurement": "MIC", "setting": "Staph. epidermidis; strain 3519, BHI agar, 20-24 hours, read-out: MIC", "result": 0.06, "unit": "µg/mL"}, {"measurement": "MIC", "setting": "Strep. faecium; strain ATCC 8043, BHI agar, 20-24 hours, read-out: MIC", "result": 0.06, "unit": "µg/mL"}, {"measurement": "MIC", "setting": "Staph. aureus; ATCC6538P, strain ATCC 6538P, read-out: MIC", "result": 0.06, "unit": "µg/mL"}, {"measurement": "MIC", "setting": "Staph. aureus; strain CMX 686B, read-out: MIC", "result": 0.12, "unit": "µg/mL"}]}
{"compound": "CC[C@H]1OC(=O)[C@H](C)[C@@H](O[C@H]2C[C@@](C)(OC)[C@@H](O)[C@H](C)O2)[C@H](C)[C@@H](O[C@@H]2O[C@H](C)C[C@H](N(C)C)[C@H]2O)[C@](C)(OC)C[C@@H](C)C(=O)[C@H](C)[C@H]2N(Cc3ccccc3)C(=O)O[C@]12C", "note": "[Example 3, 11-deoxy-6-O-methyl erythromycin A 11,12-(N-benzyl)cyclic carbamate]", "values": [{"measurement": "MIC", "setting": "Klebsiella pneumoniae", "result": 25, "unit": "µg/mL"}, {"measurement": "MIC", "setting": "E. coli; strain DC-2", "result": 25, "unit": "µg/mL"}, {"measurement": "MIC", "setting": "E. coli; strain H560", "result": 6.2, "unit": "µg/mL"}, {"measurement": "MIC", "setting": "E. coli; strain JUHL", "result": 25, "unit": "µg/mL"}, {"measurement": "MIC", "setting": "E. coli; strain KNK 437", "result": 25, "unit": "µg/mL"}, {"measurement": "MIC", "setting": "E. coli; strain SS", "result": 0.39, "unit": "µg/mL"}, {"measurement": "MIC", "setting": "Pseudomonas cepacia", "result": 50, "unit": "µg/mL"}, {"measurement": "MIC", "setting": "Lactobacillus Casei", "result": 0.05, "unit": "µg/mL"}, {"measurement": "MIC", "setting": "Micrococcus luteus", "result": 0.05, "unit": "µg/mL"}, {"measurement": "MIC", "setting": "Pseudomonas aeruginosa; strain 5007", "result": "> 100", "unit": "µg/mL"}, {"measurement": "MIC", "setting": "Pseudomonas aeruginosa; strain BMH10", "result": 25, "unit": "µg/mL"}, {"measurement": "MIC", "setting": "Pseudomonas aeruginosa; strain K799/61", "result": 3.1, "unit": "µg/mL"}, {"measurement": "MIC", "setting": "Pseudomonas aeruginosa; strain K799/WT", "result": "> 100", "unit": "µg/mL"}, {"measurement": "MIC", "setting": "Strep. pyogenes; strain 930", "result": 100, "unit": "µg/mL"}, {"measurement": "MIC", "setting": "Strep. pyogenes; strain EES61", "result": 0.02, "unit": "µg/mL"}, {"measurement": "MIC", "setting": "Staph. epidermidis", "result": 0.2, "unit": "µg/mL"}, {"measurement": "MIC", "setting": "Staph. epidermidis; strain 3519 RARI, BHI agar, 20-24 hours", "result": 0.2, "unit": "µg/mL"}, {"measurement": "MIC", "setting": "Strep. faecium", "result": 0.1, "unit": "µg/mL"}, {"measurement": "MIC", "setting": "Staph. aureus; ATCC6538P, strain ATCC 6538P", "result": 0.39, "unit": "µg/mL"}, {"measurement": "MIC", "setting": "Staph. aureus; strain 45", "result": 0.1, "unit": "µg/mL"}, {"measurement": "MIC", "setting": "Staph. aureus; strain 45 RAR 2", "result": 0.39, "unit": "µg/mL"}, {"measurement": "MIC", "setting": "Staph. aureus; strain A5177", "result": 0.78, "unit": "µg/mL"}, {"measurement": "MIC", "setting": "Staph. aureus; strain CMX 686B", "result": 0.39, "unit": "µg/mL"}, {"measurement": "MIC", "setting": "Providencia stuartii", "result": "> 100", "unit": "µg/mL"}, {"measurement": "MIC", "setting": "Strep. agalactiae", "result": 0.02, "unit": "µg/mL"}, {"measurement": "MIC", "setting": "Strep. bovis", "result": 0.02, "unit": "µg/mL"}, {"measurement": "MIC", "setting": "Ent. aerogenes", "result": 50, "unit": "µg/mL"}, {"measurement": "MIC", "setting": "Acinetobacter SP", "result": 50, "unit": "µg/mL"}]}
